Test results reported in patent publication US10028992B2, “Methods of treating muscular dystrophy” (BOARD OF REGENTS OF THE NEVADA SYSTEM OF HIGHER EDUCATION …, priority 2012, dated 2018).

Tested on: α7 integrin promoter
Assay: muscle cell-based assay: α7βgal+/− myoblasts/myotubes, LacZ reporter, β-galactosidase cleavage of FDG
Set-up: species or system mouse
Settings: Myotubes; for Results in a α7+/− β-galactosidase assay, Myotubes, 0.5 uM: compound at 0.5 uM; for Results in a α7+/− β-galactosidase assay, Myotubes, 1 uM: compound at 1 uM; for Results in a α7+/− β-galactosidase assay, Myotubes, 5 uM: compound at 5 uM; for Results in a α7+/− β-galactosidase assay, Myotubes, 10 uM: compound at 10 uM; for Results in a α7+/− β-galactosidase assay, Myotubes, 20 uM: compound at 20 uM; for Results in a α7+/− β-galactosidase assay, Myotubes, 40 uM: compound at 40 uM
Procedure, shortened: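 Fluorescein generated from FDG by β-galactosidase reports α7 integrin promoter activity in differentiated myoblasts from α7+/− LacZ knock-in pups. Screening hits then went to dose-response, western blotting and a myostatin counterscreen.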

Structure (SMILES) | Results in a α7+/− β-galactosidase assay, Myotubes, 0.5 uM | Results in a α7+/− β-galactosidase assay, Myotubes, 1 uM | Results in a α7+/− β-galactosidase assay, Myotubes, 5 uM | Results in a α7+/− β-galactosidase assay, Myotubes, 10 uM | Results in a α7+/− β-galactosidase assay, Myotubes, 20 uM | Results in a α7+/− β-galactosidase assay, Myotubes, 40 uM
CC1(C)Cc2c(c(N3CCOCC3)nc3sc(C(=O)Nc4ccccc4)c(N)c23)CO1 [drawing 330] | 0.2661 | 0.1201 | −0.3453 | −0.3697 | 0.0827 | −0.164
COc1ccc(N2CCN(C(=O)c3cc(C)on3)CC2)cc1 [drawing 331] | 0.1218 | 0.07329 | 0 .416848 | 0.01619 | −0.09449 | −0.06707
CCOn1c(=O)c(-c2ccccc2)[n+]([O-])c2ccccc21 [drawing 332] | 0.2995 | 0.2794 | 0.2514 | 0.005171 | −0.0871 | −0.1572
O=S(=O)(N/C(=N/C1CCCCC1)c1ccccc1F)c1ccccc1 [drawing 334] | 0.1113 | 0.07899 | 0.00127 | 0.03577 | −0.0234 | −0.0349
CCCCNc1nnc(Cc2ccc(Cl)cc2)c(O)n1 [drawing 335] | 0.2647 | 0.1668 | −0.1354 | −0.08652 | −0.07223 | −0.1
CC(C)CN(C(=O)c1cccc(Cl)c1)c1c(N)n(Cc2ccccc2)c(=O)[nH]c1=O [drawing 336] | 0.198 | 0.2672 | −0.02107 | 0.07176 | −0.1352 | −0.2545
Cc1nc(O)nc(O)c1S(=O)(=O)Nc1ccc(F)cc1Cl [drawing 337] | 0.2345 | 0.05045 | 0.06886 | 0.09509 | −0.05815 | −0.1517
Cc1nnc(-c2ccc(N3CCOCC3)c([N+](=O)[O-])c2)o1 [drawing 338] | 0.0728 | 0.1596 | −0.09085 | −0.1238 | 0.04847 | −0.1846
Cc1cc(C)cc(OCC(=O)N/N=C/c2ccccn2)c1 [drawing 339] | 0.02382 | 0.1393 | 0.05474 | −0.09985 | 0.0109 | 0.02169
O=C1Nc2ccccc2/C1=C/c1c[nH]c(-c2ccccc2)n1 [drawing 340] | 0.05652 | 0.1643 | 0.09489 | −0.07868 | −0.03697 | −0.06801
O=C(c1ccccc1)N1CCN(S(=O)(=O)c2cccs2)CC1 [drawing 341] | 0.0882 | 0.04972 | 0.07204 | −0.06595 | −0.01414 | −0.06305
COc1ccccc1C(=O)Nc1ccnn1C1CCN(C(=O)c2ccoc2)CC1 [drawing 343] | 0.01341 | −0.07814 | 0.06946 | 0.05194 | −0.08844 | −0.04958
CCOC(=O)c1nnn(-c2nonc2OC)c1-c1ccccc1 [drawing 344] | 0.0549 | 0.07612 | 0.1364 | 0.03578 | 0.0782 | −0.03173
CC(C)(C)Nc1nc(-c2ccc3c(c2)CCN3C(=O)C2CC2)cs1 [drawing 345] | 0.1684 | 0.1611 | 0.06864 | 0.06011 | −0.1349 | −0.5189
CCN(C(=O)c1ccc(S(=O)(=O)N(C)C)cc1)C(C)C(=O)Nc1ccc(C)cc1 (stereo not drawn) [drawing 348] | −0.152 | −0.2399 | −0.0943 | 0.05776 | −0.2237 | 0.02912
COc1cc(NC(=O)OCc2ccccc2)c2ncccc2c1 [drawing 349] | 0.01764 | 0.03267 | −0.1098 | −0.05054 | −0.1951 | −0.2383
Cc1ccc2c(c1)/C(=C/c1ccccc1C)C(=O)N2 [drawing 350] | −0.01581 | −0.0839 | −0.04071 | 0.0246 | −0.4093 | −0.6283
O=C(NCCc1ccccc1)C1CCC(=O)N1C1CCCC1 (stereo not drawn) [drawing 351] | 0.05429 | −0.1351 | 0.08688 | 0.1206 | −0.1635 | −0.1123
CCCN(C(=O)c1ccc(S(=O)(=O)N2CCCC2)cc1)C1CCS(=O)(=O)C1 (stereo not drawn) [drawing 352] | −0.1044 | −0.1728 | −0.01555 | 0.1537 | −0.08104 | −0.06466
C=CCOc1ccc(C(=O)/C=C2\C(=O)Nc3ccccc32)cc1 [drawing 353] | −0.02111 | −0.0826 | −0.09703 | 0.05145 | −0.2835 | −0.2827
CCN(CC(=O)NCc1cccs1)C(=O)COc1ccc(C(N)=O)cc1 [drawing 354] | 0.06872 | −0.07237 | 0.09763 | 0.2952 | −0.2218 | −0.02391
CC(C)Oc1cccc(C(=O)Nc2ccc(CN3CCOCC3)cc2)c1 [drawing 355] | −0.02164 | −0.1398 | 0.1741 | 0.1947 | −0.2357 | −0.1159
Cc1ccc(/C=C2\C(=O)Nc3ccccc32)o1 [drawing 356] | 0.09656 | −0.02249 | −0.1043 | −0.06876 | −0.2369 | −0.336
O=c1[nH]c(CN2CCCCC2)cc2c1C1(CCCCC1)Cc1ccccc1-2 [drawing 357] | 0.1087 | 0.1264 | −0.08739 | −0.0441 | −0.09507 | −0.1888
COc1ccccc1NS(=O)(=O)c1cc(NC(=O)c2ccc(Cl)nc2)ccc1N1CCCC1 [drawing 358] | 0.1418 | 0.2243 | 0.0609 | 0.2352 | −0.07572 | −0.1492
